Measurements reported in ChEMBL document CHEMBL5233288, “Ginkgo Biflavones Cause p53 Wild-Type Dependent Cell Death in a Transcription-Independent Manner of p53” (J Nat Prod, 2023).
The source made the active and inactive calls. No cut-off for these calls is given here.

How the values were obtained:
[1] = tested on: HCT-116; experiment: Induction of apoptosis in human HCT-116 cells expressing wild type p53 assessed as early apoptotic cells at 20 uM incubated for 48 hrs by Annexin V-FITC/PI staining based flow cytometry (reference value: 12%); format: functional
[2] = tested on: HCT-116; experiment: Induction of apoptosis in human HCT-116 cells expressing wild type p53 assessed as necrotic cells at 10 uM incubated for 48 hrs by Annexin V-FITC/PI staining based flow cytometry (reference value: 0.44%); format: functional
[3] = tested on: HCT-116; experiment: Upregulation of acetylated p53 protein expression in human HCT-116 cells expressing wild type p53 at 20 uM incubated for 24 hrs by western blot analysis; format: functional, cell-based
[4] = tested on: HCT-116; experiment: Upregulation of p53 protein expression in human HCT-116 cells expressing wild type p53 at 20 uM by western blot analysis; format: functional, cell-based; conditions: time 0.5-16 hrs, TDE = time-dependent effect
[5] = tested on: HCT-116; experiment: Cytotoxicity against human HCT-116 cells assessed as reduction in cell viability at 10 uM incubated for 72 hrs in presence of ferroptosis inhibitor, ferrostatin-1 by resazurin-based analysis; format: functional
[6] = tested on: HCT-116; experiment: Induction of cell cycle arrest in human HCT-116 cells expressing wild type p53 assessed as accumulation of cells at S phase at 10 uM incubated for 24 hrs by PI staining based flow cytometry (reference value: 0.52 to 3.83%); format: functional
[7] = tested on: HCT-116; experiment: Induction of cell cycle arrest in human HCT-116 cells expressing wild type p53 assessed as accumulation of cells at G2 phase at 5 uM incubated for 24 hrs by PI staining based flow cytometry (reference value: 30.7 to 31.5%); format: functional
[8] = tested on: HCT-116; experiment: Induction of cell cycle arrest in human HCT-116 cells expressing wild type p53 assessed as accumulation of cells at G2 phase at 10 uM incubated for 24 hrs by PI staining based flow cytometry (reference value: 30.7 to 31.5%); format: functional
[9] = tested on: HT-29; experiment: Cytotoxicity against human HT-29 cells expressing p53 mutant assessed as induction of cell death at 20 uM incubated for 72 hrs by resazurin based analysis; format: functional
[10] = tested on: HCT-116; experiment: Increase in mitochondrial complex III activity in human HCT-116 cells at 20 uM incubated for 24 hrs; format: functional, cell-based
[11] = target: Cellular tumor antigen p53 (Homo sapiens) (UniProt P04637); experiment: Inhibition of p53 DNA binding activity in human HCT-116 cells assessed as reduction in DNA-protein complex formation at 20 uM incubated for 24 hrs by electrophoretic mobility shift analysis; format: cell-based
[12] = Toxicity against BALB/c nude mouse xenografted with human HCT-116 cells assessed as body weight loss at 10 mg/kg, ip qd for 12 days and measured every 2 days; format: organism-based; conditions: in vivo, 288 h, time 12 day
[13] = tested on: HCT-116; experiment: Antitumor activity against human HCT-116 cells xenografted in BALB/c nude mouse assessed as reduction in tumor weight at 10 mg/kg, ip qd for 12 days; format: functional, organism-based; conditions: time 12.0 day
[14] = tested on: HCT-116; experiment: Potentiation of 5-FU-induced antitumor activity against human HCT-116 cells xenografted in BALB/c nude mouse assessed as reduction in tumor weight at 10 mg/kg, ip qd for 12 days and administered with 5-FU at 30 mg/kg, ip once every 3 days for 12 days; format: functional, organism-based; conditions: time 12.0 day
[15] = Toxicity against BALB/c nude mouse xenografted with human HCT-116 cells assessed as body weight loss at 10 mg/kg, ip qd for 12 days and administered with 5-FU at 30 mg/kg, ip once every 3 days for 12 days and measured every 2 days; format: organism-based; conditions: in vivo, 288 h, time 12 day
[16] = tested on: HCT-116; experiment: Antitumor activity against human HCT-116 cells xenografted in BALB/c nude mouse assessed as reduction in tumor volume at 10 mg/kg, ip qd for 12 days and measured every 2 days; format: functional, organism-based; conditions: time 12.0 day
[17] = tested on: HCT-116; experiment: Potentiation of 5-FU-induced antitumor activity against human HCT-116 cells xenografted in BALB/c nude mouse assessed as reduction in tumor volume at 10 mg/kg, ip qd for 12 days and administered with 5-FU at 30 mg/kg, ip once every 3 days for 12 days and measured every 2 days; format: functional, organism-based; conditions: time 12.0 day

Cellular tumor antigen p53 (Homo sapiens), sequence (P04637 whole entry, looked up): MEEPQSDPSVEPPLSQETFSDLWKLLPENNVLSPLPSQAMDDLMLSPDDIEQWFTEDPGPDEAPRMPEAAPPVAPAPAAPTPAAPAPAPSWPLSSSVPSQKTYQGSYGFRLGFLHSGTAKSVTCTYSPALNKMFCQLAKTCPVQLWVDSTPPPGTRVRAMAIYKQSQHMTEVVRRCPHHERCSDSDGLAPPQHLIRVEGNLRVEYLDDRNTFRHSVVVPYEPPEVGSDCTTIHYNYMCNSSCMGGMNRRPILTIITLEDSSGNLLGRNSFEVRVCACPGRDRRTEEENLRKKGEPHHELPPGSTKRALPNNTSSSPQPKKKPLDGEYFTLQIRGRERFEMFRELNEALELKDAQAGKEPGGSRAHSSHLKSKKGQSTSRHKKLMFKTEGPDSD

Row | inhibition [11] | Compound | Activity [1] [%] | Activity [2] [%] | Activity [3] | Activity [4] | Activity [5] | Activity [6] [%] | Activity [7] [%] | Activity [8] [%] | Activity [9] | Activity [10] | Activity [12] | Activity [13] | Activity [14] | Activity [15] | Activity [16] | Activity [17]
1 | Active | COc1ccc(-c2cc(=O)c3c(O)cc(O)c(-c4cc(-c5cc(=O)c6c(O)cc(O)cc6o5)ccc4OC)c3o2)cc1 [ISOGINKGETIN] | 40.6 | 0.92 | Active | Tde | inactive | 1.38 | 36.7 | 44.5 | inactive | Active | – | – | – | – | – | –
2 | Active | COc1ccc(-c2cc(=O)c3c(O)cc(O)cc3o2)cc1-c1c(O)cc(O)c2c(=O)cc(-c3ccc(O)cc3)oc12 [BILOBETIN] | 39.9 | 0.46 | Active | Tde | inactive | 4.88 | 32.7 | 33.4 | inactive | Active | – | – | – | – | – | –
3 | Active | COc1cc(O)c2c(=O)cc(-c3ccc(OC)c(-c4c(O)cc(O)c5c(=O)cc(-c6ccc(O)cc6)oc45)c3)oc2c1 [GINKGETIN] | 33.6 | 0.99 | Active | Tde | inactive | 3.37 | 39.2 | 43.1 | inactive | Active | Non-Toxic | Active | Active | Non-Toxic | Active | Active
